Measured values reported in patent publication US8076332B2, “N- (2-aminophenyl) benzamide derivative having urea structure” (Santen Pharmaceutical Co., Ltd., priority 2006, dated 2011).

Test system: human trabecular meshwork cell line (TM-1 cells)
Assay: Test for evaluation of effect of morphological change on trabecular meshwork cells (cell shape index, CSI)
Format: cell-based
Conditions: final concentration 10 μM, incubation 24 hours, CSI=4π×(Cell Area)/(Cell Perimeter)^2, average per group, Control 0.730
Procedure: 1. Test for Evaluation of Effect of Morphological Change on Trabecular Meshwork Cells
As a method for evaluating a cellular morphological change, an evaluation system using the cell shape index (hereinafter referred to as “CSI”) as an index has been reported in The Journal of Clinical Investigation, 103, 1141-1150 (1999). Therefore, according to the method described in the above document, an effect of morphological change of the present compounds on trabecular meshwork cells was evaluated.
A human trabecular meshwork cell line (hereinafter referred to as “TM-1 cells”) reported in Investigative Opthalmology & Visual Science, 43, 151-161 (2002) was used.
Culture medium 1: A reagent was prepared by adding fetal bovine serum (10%), L-glutamine (2 mM), amphotericin B (2.5 μg/mL), and gentamicin (25 μg/mL) to Dulbecco's modified Eagle medium (hereinafter referred to as “D-MEM”).
Culture medium 2: Fetal bovine serum (3%), L-glutamine (2 mM), amphotericin B (2.5 μg/mL), and gentamicin (25 μg/mL) were added to D-MEM.
Cell staining liquid: A mixed liquid of Calcein-AM (16 μM) and Hoechst 33342 (40 μM) was prepared by diluting a Calcein-AM solution (cytoplasmic staining reagent, manufactured by Dojindo Laboratories) and a Hoechst 33342 solution (nuclear staining reagent, manufactured by Dojindo Laboratories) with D-MEM containing L-glutamine (2 mM), amphotericin B (2.5 μg/mL), and gentamicin (25 μg/mL).
TM-1 cells subcultured at 37° C. in a 8% carbon dioxide gas atmosphere were treated with a trypsin/EDTA solution (0.05% trypsin and 0.53 mM tetrasodium ethylenediaminetetraacetate) at 24 hours before performing a drug treatment mentioned below and seeded on a 96-well culture plate. The culture medium 1 was used for the subculture of the cells. The culture medium 2 was used for the cell culture after seeding the cells on the plate.
A test compound was dissolved in dimethyl sulfoxide, whereby a 5 mM solution was prepared. Then, the resulting solution was diluted with the culture medium 2, whereby a 200 μM test compound solution was prepared.
It has been reported that Y-27632 which is a Rho kinase inhibitor induces a morphological change in trabecular meshwork cells in Investigative Ophthalmology & Visual Science, 42, 137-144 (2001). Therefore, Y-27632 (produced according to the method described in WO 90/05723) was used as a positive control, and dissolved in dimethyl sulfoxide in the same manner as the test compound, whereby a 5 mM solution was prepared, and then, the resulting solution was diluted with the culture medium 2, whereby a 200 μM positive control compound solution was prepared.
1) To a 96-well culture plate, a solution of TM-1 cells adjusted to a cell density of […] was added in an amount of 95 μL (1.5×10^4 cells) per well.
2) Incubation was performed at 37° C. in a 8% carbon dioxide gas atmosphere for 24 hours.
3) The test compound solution or positive control compound solution was added in an amount of 5 μL per well (the final concentration of the test compound or positive control compound was 10 μM). As a control, the culture medium 2 containing dimethyl sulfoxide (4%) was added in an amount of 5 μL per well.
4) Incubation was performed at 37° C. in a 8% carbon dioxide gas atmosphere for 24 hours.
5) The cell staining liquid was added in an amount of 10 μL per well.
6) Incubation was performed at 37° C. in a 8% carbon dioxide gas atmosphere for 1 hour to stain the cells.
7) A 37% formaldehyde solution was added in an amount of 10 μL per well.
8) Incubation was performed at room temperature for 1 hour to fix the cells.
9) Washing with phosphate-buffered saline was performed.
10) Using Array Scan Vti HCS reader (manufactured by Cellomics), images of stained cells magnified with a 20 times objective lens were captured in 80 fields (10 fields×8 wells) per test compound addition group.
11) CSI was calculated for each cell and an average value was obtained for each test compound addition group. […]

SMILES | CSI
CN(C)CCN(Cc1ccc(C(=O)Nc2ccccc2N)cc1)C(=O)Nc1ccccc1 [Compound 1-2, N-(2-Aminophenyl)-4-[1-(2-dimethylaminoerthyl)-3-phenyl-ureidomethyl]benzamide] | 0.599
CN(C)CCN(Cc1ccc(C(=O)Nc2ccccc2N)cc1)C(=O)NCCc1ccccc1 [Compound 1-4, N-(2-Aminophenyl)-4-[1-(2-dimethylaminoethyl)-3-phenethylureidomethyl]benz-amide] | 0.545
CN(C)CCN(Cc1ccc(C(=O)Nc2ccccc2N)cc1)C(=O)NCc1ccccc1 [Compound 1-5, N-(2-Aminophenyl)-4-[3-benzyl-1-(2-dimethylaminoethyl)ureidomethyl]benzamide] | 0.636
Nc1ccccc1NC(=O)c1ccc(CN(CC(O)CO)C(=O)Nc2ccc3c(c2)CCC3)cc1 (stereo not drawn) [Compound 1-16, N-(2-Aminophenyl)-4-[1-(2,3-dihydroxypropyl)-3-(indan-5-yl)ureidomethyl]benz-amide] | 0.616
CNCCN(Cc1ccc(C(=O)Nc2ccccc2N)cc1)C(=O)NC1CCCC1 [Compound 1-22, N-(2-Aminophenyl)-4-[3-cyclo-pentyl-1-(2-methylamino-ethyl)ureidomethyl]benz-amide] | 0.619
CNCCN(Cc1ccc(C(=O)Nc2ccccc2N)cc1)C(=O)Nc1ccc2c(c1)OCCO2 [Compound 1-23, N-(2-Aminophenyl)-4-[3-(2,3-dihydrobenzo[1,4]dioxin-6-yl)-1-(2-methylamino-ethyl)ureidomethyl]benzamide] | 0.534
CN(C)CCCN(Cc1ccc(C(=O)Nc2ccccc2N)cc1)C(=O)NCCc1ccccc1 [Compound 1-28, N-(2-Aminophenyl)-4-[1-(3-dimethylaminopropyl)-3-phenylethylureidomethyl]benz-amide] | 0.514
CN(C)c1ccc(NC(=O)N(CCCN2CCOCC2)Cc2ccc(C(=O)Nc3ccccc3N)cc2)cc1 [Compound 1-31, N-(2-Aminophenyl)-4-[3-(4-dimethylaminophenyl)-1-[3-(morpholin-4-yl)propyl]ureidomethyl]benzamide] | 0.632
Nc1ccccc1NC(=O)c1ccc(CN(CC2CCNCC2)C(=O)Nc2ccc(Cl)cc2)cc1 [Compound 1-34, N-(2-Aminophenyl)-4-[3-(4-chlorophenyl)-1-(piperidin-4-ylmethyl)ureidomethyl] benzamide] | 0.681
COc1ccc(NC(=O)N(Cc2ccc(C(=O)Nc3ccccc3N)cc2)CC(C)(C)CN(C)C)cc1OC [Compound 1-36, N-(2-Aminophenyl)-4-[3-(3,4-dimethoxyphenyl)-1-(3-dimethylamino-2,2-dimethyl-propyl)ureidomethyl]benzamide] | 0.539
CN(C)CC(C)(C)CN(Cc1ccc(C(=O)Nc2ccccc2N)cc1)C(=O)Nc1ccc(CC#N)cc1 [Compound 1-38, N-(2-Aminophenyl)-4-[3-(4-cyanomethylphenyl)-1-(3-dimethylamino-2,2-dimethyl-propyl)ureidomethyl]benz-amide] | 0.616
NCCCN(Cc1ccc(C(=O)Nc2ccccc2N)cc1)C(=O)Nc1ccc2c(c1)OCCO2 [Compound 1-39, N-(2-Aminophenyl)-4-[1-(3-aminopropyl)-3-(2,3-di-hydrobenzo[1,4]dioxin-6-yl)ureidomethyl]benzamide] | 0.615
CN(C)c1ccc(NC(=O)N(CCCN2CCCC2=O)Cc2ccc(C(=O)Nc3ccccc3N)cc2)cc1 [Compound 1-43, N-(2-Aminophenyl)-4-[3-(4-dimethylaminophenyl)-1-[3-(pyrrolidin-2-on-1-yl)propyl]ureidomethyl]benzamide] | 0.679
COC(=O)c1ccc(NC(=O)N(CCCN(C)C)Cc2ccc(C(=O)Nc3ccccc3N)cc2)cc1 [Compound 1-46, N-(2-aminophenyl)-4-[1-(3-dimethylaminopropyl)-3-(4-methoxycarbonylphenyl)ureidomethyl]benzamide] | 0.581
CN(C)c1ccc(NC(=O)N(CCO)Cc2ccc(C(=O)Nc3ccccc3N)cc2)cc1 [Compound 1-47, N-(2-Aminophenyl)-4-[3-(4-dimethylaminophenyl)-1-(2-hydroxyethyol)ureidomethyl] benzamide] | 0.613
Nc1ccccc1NC(=O)c1ccc(CN(CCO)C(=O)NCCc2ccccc2)cc1 [Compound 1-49, N-(2-Aminophenyl)-4-[1-(2-hydroxyethyl)-3-phenylethyl-ureidomethyl]benzamide] | 0.630
CCN1CCCC1CN(Cc1ccc(C(=O)Nc2ccccc2N)cc1)C(=O)Nc1ccc2c(c1)OCCO2 (stereo not drawn) [Compound 1-50, N-(2-Aminophenyl)-4-[3-(2,3-dihydrobenzo[1,4]dioxin-6-yl)-1-(1-ethylpyrrolidin-2-ylmethyl)ureidomethyl] benzamide] | 0.617
CN(C)CCCCN(Cc1ccc(C(=O)Nc2ccccc2N)cc1)C(=O)Nc1ccc(N(C)C)cc1 [Compound 1-53, N-(2-Aminophenyl)-4-[1-(4-dimethylaminobutyl)-3-(4-dimethylaminoiphenyl)ureido-methyl]benzamide] | 0.538
COc1cccc(NC(=O)N(CCCN2CCOCC2)Cc2ccc(C(=O)Nc3ccccc3N)cc2)c1 [Compound 1-58, N-(2-Aminophenyl)-4-[3-(3-methoxyphenyl)-1-[3-(mor-pholin-4-yl)propyl]ureido-methyl]benzamide] | 0.610
Nc1ccccc1NC(=O)c1ccc(CN(CCCN2CCOCC2)C(=O)Nc2ccc(OC(F)F)cc2)cc1 [Compound 1-60, N-(2-Aminophenyl)-4-[3-(4-difluoromethoxyphenyl)-1-[3-(morpholin-4-yl)propyl]ureidomethyl]benzamide] | 0.608
Nc1ccc(NC(=O)N(CCCN2CCOCC2)Cc2ccc(C(=O)Nc3ccccc3N)cc2)cc1 [Compound 1-66, N-(2-Aminophenyl)-4-[3-(4-aminophenyl)-1-[3-(mor-pholin-4-yl)propyl]ureidomethyl] benzamide] | 0.624
CN(C)CCCN(Cc1ccc(C(=O)Nc2ccccc2N)cc1)C(=O)Nc1cccc(OCc2ccccc2)c1 [Compound 1-76, N-(2-aminophenyl)-4-[3-(3-benzyloxyphenyl)-1-(3-dimethylaminopropyl)ureidomethyl]benzamide] | 0.649
CN1CCN(CCN(Cc2ccc(C(=O)Nc3ccccc3N)cc2)C(=O)Nc2ccc3c(c2)OCCO3)CC1 [Compound 1-94, N-(2-Aminophenyl)-4-[3-(2,3-dihydrobenzo[1,4]dioxin-6-yl)-1-[2-(4-methylpiper-azin-1-yl)ethyl]ureidomethyl] benzamide] | 0.595
CN1CCCC1CCN(Cc1ccc(C(=O)Nc2ccccc2N)cc1)C(=O)Nc1ccc(F)c(F)c1 (stereo not drawn) [Compound 1-97, N-(2-Aminophenyl)-4-[3-(3,4-difluorophenyl)-1-[2-(1-methylpyrrolidin-2-yl)-ethyl]ureidomethyl]benzamide] | 0.595
CN(C)CCCN(Cc1ccc(C(=O)Nc2ccccc2N)cc1)C(=O)Nc1ccc(F)c([N+](=O)[O-])c1 [Compound 1-102, N-(2-Aminophenyl)-4-[1-(3-dimethylaminopropyl)-3-(4-fluoro-3-nitrophenyl)ureido-methyl]benzamide] | 0.538
CN(C)CCCN(Cc1ccc(C(=O)Nc2ccccc2N)cc1)C(=O)Nc1cccnc1 [Compound 1-104, N-(2-Aminophenyl)-4-[1-(3-dimethylaminopropyl)-3-(pyridin-3-yl)ureidomethyl]-benzamide] | 0.609
COc1ccc(N)c(NC(=O)c2ccc(CN(CCN(C)C)C(=O)Nc3ccc4c(c3)CCC4)cc2)c1 [Compound 1-107, N-(2-Amino-5-methoxyphenyl)-4-[1-(2-dimethylamino-ethyl)-3-(indan-5-yl)ureod-methyl]benzamide] | 0.663
